Data taken from ChEMBL document CHEMBL1201862, “PubChem BioAssay data set” (2004).
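How tested: cells in 96-well plates exposed to compound for 48 hours at five concentrations. GI50 = concentration required for 50% inhibition of growth.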 Active and inactive are the calls of the source. Cut-off read from the data, not from the text of the source: active = GI50 up to about 1.1 µM and inactive = higher.

Tests used:
Experiment in all cases: NCI tumour cell line growth inhibition, 48 h
CCRF-CEM = system: CCRF-CEM
Malme-3M = system: Malme-3M
SN12C = system: SN12C
HOP-62 = system: HOP-62
EKVX = system: EKVX
RXF 393 = system: RXF 393
SK-MEL-28 = system: SK-MEL-28
OVCAR-8 = system: OVCAR-8
SK-MEL-5 = system: SK-MEL-5
OVCAR-3 = system: OVCAR-3
786-0 = system: 786-0
SNB-19 = system: SNB-19
M14 = system: M14
NCI-H522 = system: NCI-H522
OVCAR-4 = system: OVCAR-4
HL-60 = system: HL-60
HT-29 = system: HT-29
NCI-H460 = system: NCI-H460
CAKI-1 = system: CAKI-1
NCI/ADR-RES = system: NCI/ADR-RES
MOLT-4 = system: MOLT-4
MDA-MB-435 = system: MDA-MB-435
BT-549 = system: BT-549
ACHN = system: ACHN
HOP-92 = system: HOP-92
PC-3 = system: PC-3
SK-OV-3 = system: SK-OV-3
SF-295 = system: SF-295
SF-268 = system: SF-268
DU-145 = system: DU-145
MCF7 = system: MCF7
UACC-257 = system: UACC-257
MDA-N = system: MDA-N
Hs-578T = system: Hs-578T
UACC-62 = system: UACC-62
HCT-116 = system: HCT-116
SR = system: SR
K562 = system: K562
LOX IMVI = system: LOX IMVI
SF-539 = system: SF-539
T47D = system: T47D
HCC 2998 = system: HCC 2998
NCI-H226 = system: NCI-H226
UO-31 = system: UO-31
SW-620 = system: SW-620
COLO 205 = system: COLO 205
TK-10 = system: TK-10
SK-MEL-2 = system: SK-MEL-2
A549 = system: A549
U-251 = system: U-251
OVCAR-5 = system: OVCAR-5
MDA-MB-231 = system: MDA-MB-231
IGROV-1 = system: IGROV-1
NCI-H23 = system: NCI-H23
RPMI-8226 = system: RPMI-8226
KM12 = system: KM12
SNB-75 = system: SNB-75
A498 = system: A498
HCT-15 = system: HCT-15

SMILES: N/N=C(/C=C1\C(=O)Nc2ccccc21)c1ccccc1
- GI50 (CCRF-CEM): 13.2 µM (inactive)
- GI50 (Malme-3M): 23.5 µM (inactive)
- GI50 (SN12C): 26.3 µM (inactive)
- GI50 (HOP-62): 32.9 µM (inactive)
- GI50 (EKVX): 32.9 µM (inactive)
- GI50 (RXF 393): 20 µM (inactive)
- GI50 (SK-MEL-28): 26.7 µM (inactive)
- GI50 (OVCAR-8): 24 µM (inactive)
- GI50 (SK-MEL-5): 10.5 µM (inactive)
- GI50 (OVCAR-3): 18.2 µM (inactive)
- GI50 (786-0): 25.3 µM (inactive)
- GI50 (SNB-19): 27.6 µM (inactive)
- GI50 (M14): 15.5 µM (inactive)
- GI50 (NCI-H522): 27.9 µM (inactive)
- GI50 (OVCAR-4): 58.7 µM (inactive)
- GI50 (HL-60): 3.8 µM (inactive)
- GI50 (HT-29): 19.9 µM (inactive)
- GI50 (NCI-H460): 28.6 µM (inactive)
- GI50 (CAKI-1): 24.3 µM (inactive)
- GI50 (NCI/ADR-RES): 18.2 µM (inactive)
- GI50 (MOLT-4): 19.7 µM (inactive)
- GI50 (MDA-MB-435): 4.15 µM (inactive)
- GI50 (BT-549): 15.4 µM (inactive)
- GI50 (ACHN): 45.1 µM (inactive)
- GI50 (HOP-92): 24.5 µM (inactive)
- GI50 (PC-3): 20.3 µM (inactive)
- GI50 (SK-OV-3): 32.1 µM (inactive)
- GI50 (SF-295): 21.4 µM (inactive)
- GI50 (SF-268): 55.6 µM (inactive)
- GI50 (DU-145): 37.2 µM (inactive)
- GI50 (MCF7): 18.9 µM (inactive)
- GI50 (UACC-257): 36.1 µM (inactive)
- GI50 (MDA-N): 3.77 µM (inactive)
- GI50 (Hs-578T): 15.4 µM (inactive)
- GI50 (UACC-62): 24.6 µM (inactive)
- GI50 (HCT-116): 15.3 µM (inactive)
- GI50 (SR): 40.8 µM (inactive)
- GI50 (K562): 5.45 µM (inactive)
- GI50 (LOX IMVI): 22.2 µM (inactive)
- GI50 (SF-539): 18.7 µM (inactive)
- GI50 (T47D): 66.4 µM (inactive)
- GI50 (HCC 2998): 20 µM (inactive)
- GI50 (NCI-H226): 45.8 µM (inactive)
- GI50 (UO-31): 32.2 µM (inactive)
- GI50 (SW-620): 15.9 µM (inactive)
- GI50 (COLO 205): 19.9 µM (inactive)
- GI50 (TK-10): 42.8 µM (inactive)
- GI50 (SK-MEL-2): 61.8 µM (inactive)
- GI50 (A549): 29.6 µM (inactive)
- GI50 (U-251): 24.4 µM (inactive)
- GI50 (OVCAR-5): 50.9 µM (inactive)
- GI50 (MDA-MB-231): 20.3 µM (inactive)
- GI50 (IGROV-1): 30.4 µM (inactive)
- GI50 (NCI-H23): 30.1 µM (inactive)
- GI50 (RPMI-8226): 21 µM (inactive)
- GI50 (KM12): 11.1 µM (inactive)
- GI50 (SNB-75): 18.7 µM (inactive)
- GI50 (A498): 28.5 µM (inactive)
- GI50 (HCT-15): 8.43 µM

SMILES: CCN(CC)c1ccc2cc(C(=O)NCc3ccccc3)c(=N)oc2c1
- GI50 (CCRF-CEM): 13.3 µM (inactive)
- GI50 (Malme-3M): 15.2 µM (inactive)
- GI50 (SN12C): > 100 µM (inactive)
- GI50 (HOP-62): 59.8 µM (inactive)
- GI50 (EKVX): 13.7 µM (inactive)
- GI50 (RXF 393): 47.5 µM (inactive)
- GI50 (SK-MEL-28): 66.2 µM (inactive)
- GI50 (OVCAR-8): 37.7 µM (inactive)
- GI50 (SK-MEL-5): 27.6 µM (inactive)
- GI50 (OVCAR-3): 15.6 µM (inactive)
- GI50 (786-0): > 62.1 µM (inactive)
- GI50 (SNB-19): 54.3 µM (inactive)
- GI50 (M14): 11.1 µM (inactive)
- GI50 (NCI-H522): 9.59 µM (inactive)
- GI50 (OVCAR-4): 16.9 µM (inactive)
- GI50 (HL-60): 39.1 µM (inactive)
- GI50 (HT-29): 9.02 µM (inactive)
- GI50 (NCI-H460): 28.2 µM (inactive)
- GI50 (CAKI-1): > 44.8 µM (inactive)
- GI50 (NCI/ADR-RES): 0.912 µM (active)
- GI50 (MOLT-4): 24.9 µM (inactive)
- GI50 (MDA-MB-435): 6.7 µM (inactive)
- GI50 (BT-549): 23.5 µM (inactive)
- GI50 (ACHN): 5.43 µM (inactive)
- GI50 (HOP-92): 22.1 µM (inactive)
- GI50 (PC-3): 19.3 µM (inactive)
- GI50 (SK-OV-3): 56.8 µM (inactive)
- GI50 (SF-295): 27.5 µM (inactive)
- GI50 (SF-268): > 79.6 µM (inactive)
- GI50 (DU-145): 35 µM (inactive)
- GI50 (MCF7): 36.4 µM (inactive)
- GI50 (UACC-257): 20.4 µM (inactive)
- GI50 (MDA-N): 70.5 µM (inactive)
- GI50 (Hs-578T): > 37.6 µM (inactive)
- GI50 (UACC-62): 14.3 µM (inactive)
- GI50 (HCT-116): 39 µM (inactive)
- GI50 (SR): > 42.6 µM (inactive)
- GI50 (K562): 3.86 µM (inactive)
- GI50 (LOX IMVI): 4.7 µM (inactive)
- GI50 (SF-539): 46.3 µM (inactive)
- GI50 (T47D): 4.33 µM (inactive)
- GI50 (HCC 2998): 40.4 µM (inactive)
- GI50 (NCI-H226): > 89.5 µM (inactive)
- GI50 (UO-31): > 26.6 µM (inactive)
- GI50 (SW-620): 6.01 µM (inactive)
- GI50 (COLO 205): 16 µM (inactive)
- GI50 (TK-10): 14.4 µM (inactive)
- GI50 (SK-MEL-2): 21.4 µM (inactive)
- GI50 (A549): 42.1 µM (inactive)
- GI50 (U-251): 27.7 µM (inactive)
- GI50 (OVCAR-5): > 100 µM (inactive)
- GI50 (MDA-MB-231): > 46.3 µM (inactive)
- GI50 (IGROV-1): 43.7 µM (inactive)
- GI50 (NCI-H23): 31.1 µM (inactive)
- GI50 (RPMI-8226): 6.95 µM (inactive)
- GI50 (KM12): 8.93 µM (inactive)
- GI50 (SNB-75): 37.3 µM (inactive)
- GI50 (A498): > 100 µM (inactive)
- GI50 (HCT-15): 9.27 µM
